Assays:
[1] = molecular target: T1, acyl-CoA: cholesterol acyltransferase (ACAT) (Rattus norvegicus, UniProt Q7TQM4); test: Inhibition of Acyl-CoA: Cholesterol Acyltransferase (ACAT) in hepatic microsomes (in vitro hepatic ACAT activity); type: biochemical, rat (male Sprague Dawley); settings: 14C-oleoyl-CoA, 15 min preincubation at 37° C., pH 7.4, read-out: Inhibition of Cholesterol Esterification (IC50)
T1 construct: Microsomes were obtained by differential centrifugation; from tissue; host or cells: liver microsomes of male Sprague Dawley rats
T1 sequence (Q7TQM4 1-524): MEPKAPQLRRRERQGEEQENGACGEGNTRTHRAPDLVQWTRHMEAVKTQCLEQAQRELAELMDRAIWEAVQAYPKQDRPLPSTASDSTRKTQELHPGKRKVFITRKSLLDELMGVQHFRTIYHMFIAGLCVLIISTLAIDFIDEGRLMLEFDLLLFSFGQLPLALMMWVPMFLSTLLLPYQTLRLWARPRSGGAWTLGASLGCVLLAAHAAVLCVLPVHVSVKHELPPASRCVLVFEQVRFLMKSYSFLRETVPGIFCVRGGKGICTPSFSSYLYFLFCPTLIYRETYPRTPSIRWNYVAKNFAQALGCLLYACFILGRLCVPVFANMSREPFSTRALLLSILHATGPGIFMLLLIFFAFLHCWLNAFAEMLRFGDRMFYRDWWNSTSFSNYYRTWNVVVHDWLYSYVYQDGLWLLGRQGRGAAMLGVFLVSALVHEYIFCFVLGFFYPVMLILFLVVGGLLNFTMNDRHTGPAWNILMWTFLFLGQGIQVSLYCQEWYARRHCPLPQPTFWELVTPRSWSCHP
Procedure: The ability of the compounds to inhibit ACAT, the enzyme responsible for the intracellular synthesis of cholesteryl esters, was tested as follows. Male Sprague Dawley rats weighing 150-300 g, were fed rat chow ad libitum. The animals were fasted for twenty-four hours prior to being sacrificed by decapitation. The livers were perfused in situ with 50 ml of cold 0.25M sucrose, excised, and homogenized in three volumes of 0.1M phosphate buffer, pH 7.4, that contained 0.5 mM EDTA (ethylenediaminetetraacetic acid), 1.0 mM glutathione, 0.25M sucrose and […]. Microsomes were obtained by differential centrifugation; the supernatant from an initial spin at 15,000×g for 15 minutes was centrifuged at 105,000×g for 1 hour to pellet the microsomes. The microsomes were suspended in homogenization buffer, reisolated by centrifugation, and stored at -70° C. Microsomes were used within one month of preparation.
The control assay in a final volume of 200 μl consisted of 200 μg of microsomal protein, 75μ<^14 C-oleoyl-CoA (10,000 dpm/nmol) in 0.1M phosphate, pH 7.4, that contained 1 mM glutathione. Compounds were added in 5 μl of DMSO (dimethyl sulfoxide) and additional controls were run with DMSO only. All components, except the oleoyl-CoA, were preincubated for 15 min. at 37° C. prior to the initiation of the reaction by the addition of oleoyl-CoA. The assay was terminated after 10 min. by the addition of 4 ml of chloroform:methanol (2:1, v/v). 20,000 dpm of 3H-choledsteryl oleate and 10 μg of unlabeled cholesteryl oleate and oleic acid were added as an internal standard and carriers, respectively. After allowing 10 min. for lipid extraction, 0.8 ml of deionized water was added to separte the solution into two phases. The lower chloroform phase was collected, dried under nitrogen and resuspended in 2 ml of hexane:diethyl ether (97:3 v/v). The lipids were then loaded onto BAKERSBOND spe* silica gel columns. Extracts were collected in scintillation vials and counted for radioactivity. The specific activity of ACAT in the control incubation averaged 260 pmol/min/mg microsomal protein.

ACAT = molecular target: T2, ACAT (Mus musculus, UniProt Q61263); test: Inhibition of cholesterol esterification in the murine macrophage-like cell line J774.A1; type: cell-based; settings: J774.A1 cells, ac-LDL loaded, 14C-oleic acid pulse
T2 construct: endogenous in cells; host or cells: J774.A1 (murine macrophage-like)
T2 sequence (Q61263 1-540): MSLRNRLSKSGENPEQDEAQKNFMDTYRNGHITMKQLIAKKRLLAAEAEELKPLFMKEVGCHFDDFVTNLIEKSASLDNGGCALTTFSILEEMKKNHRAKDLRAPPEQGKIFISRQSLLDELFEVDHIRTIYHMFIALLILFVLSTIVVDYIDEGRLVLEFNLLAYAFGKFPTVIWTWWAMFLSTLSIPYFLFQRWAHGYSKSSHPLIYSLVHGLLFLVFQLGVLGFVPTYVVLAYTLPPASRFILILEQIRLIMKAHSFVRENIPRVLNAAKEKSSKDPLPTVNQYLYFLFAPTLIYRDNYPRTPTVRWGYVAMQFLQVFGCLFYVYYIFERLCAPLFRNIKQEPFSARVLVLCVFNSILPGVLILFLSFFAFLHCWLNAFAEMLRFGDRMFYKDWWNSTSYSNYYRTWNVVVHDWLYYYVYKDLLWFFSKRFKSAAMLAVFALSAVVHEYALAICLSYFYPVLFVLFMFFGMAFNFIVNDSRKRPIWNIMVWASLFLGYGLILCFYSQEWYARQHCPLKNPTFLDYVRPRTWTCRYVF
Procedure: The esterification of cholesterol was determined in the murine macrophage-like cell line J774.A1. Cells were seeded in 35 mm wells at a density of 300,000 cells per well in 2 mls of Dulbecco's Eagle Medium (DMEM) supplemented with 10% fetal bovine serum (FBS). Cells were incubated at 37° C. in an atmosphere of 5% CO2 and 93% humidity. After […] the media was changed to 0.68 mls 10% FBS-DMEM containing 34 μg of acetylated human low density lipoprotein (ac-LDL) to increase the intracellular concentration of cholesterol and promote esterification. At 41 hours, various inhibitors were added to the cells in DMSO (10 μl/ml maximum). At 43 hours, the cells were pulsed with 0.1 mM ^14 C-oleic acid (10,000 dpm/nmol) complexed with BSA (bovine serum albumin) to follow cholesterol ester formation. The experiment was terminated at 45 hours by washing the monolayers 3 times with 3 ml of Tris-buffered saline at 4° C. The lipids were extracted by incubating the monolayers with 1.5 ml of hexane: isopropanol (3:2, v/v) for 30 min. under gentle agitation. During this period, 10,000 dpm ^3 H-cholesterol oleate and 10 μg of unlabeled cholesteryl oleate, oleic acid, triolein and cholesterol were added as an […] standard and carriers. The organic solvent was removed and the cells were washed with an additional 1.0 ml of hexane: isopropanol which was combined with the original extract. The cells were allowed to dry overnight, digested with 2.0 ml of 0.2N sodium hydroxide for 1 hour and an aliquot of the solubilized protein used for protein determination using the Lowry method. […] Extracts were collected in scintillation vials to determine the amount of radioactivity. The conversion of oleic acid to cholesteryl ester in the control averaged 0.54 mmol/hour/mg protein and was increased upon the addition of ac-LDL to about 10.689±0.69 mmol/hour/mg protein.

Row | SMILES | IC50 [1] [nM] | IC50 (ACAT) [nM]
1 | CCCCCCCN(CCOC(=O)CSc1nc(-c2ccc(OC)cc2)c(-c2ccc(OC)cc2)[nH]1)C(=O)Nc1ccc(F)cc1F [Example 422, N-[2-[2-(4,5-bis(4-methoxyphenyl)-1H-imidazol-2-ylthio)-acetoxy]-ethyl]-N'-(2,4-diflurophenyl)-N -heptyl-urea] | 2600 | 2390
2 | CCCCCCCN(CCNC(=O)CSc1nc(-c2ccc(OC)cc2)c(-c2ccc(OC)cc2)[nH]1)C(=O)Nc1ccc(F)cc1F [Example 432] | 3750 | 800

— patent US5358946A, “Heterocycle-substituted amides, carbamates and ureas as agents for the treatment of atherosclerosis” (The Du Pont Merck Pharmaceutical Company, priority 1992, dated 1994)
